“Also recorded” adds a separate entry of the source.
Legend:
[1] = system: Pseudomonas aeruginosa (ATCC 27853); test: microbe, parasite or virus in culture; format: cell-based; conditions: for zone of inhibition at 100 µM / zone of inhibition at 500 µM / zone of inhibition at 1000 µM: Pseudomonas aeruginosa, ATCC27853, read-out: Zone of inhibition (diameter, in millimeter) P. aeruginosa; for zone of inhibition at 100 µM: Conc. 0.1 mM; for zone of inhibition at 500 µM: Conc. 0.5 mM; for zone of inhibition at 1000 µM: Conc. 1.0 mM
[2] = system: Burkholderia thailandensis (E 264); test: microbe, parasite or virus in culture; format: cell-based; conditions: for zone of inhibition at 100 µM / zone of inhibition at 500 µM / zone of inhibition at 1000 µM: Burkholderia thailandensis, read-out: Zone of inhibition (diameter, in millimeter) B. thailandensis; for zone of inhibition at 100 µM: Conc. 0.1 mM; for zone of inhibition at 500 µM: Conc. 0.5 mM; for zone of inhibition at 1000 µM: Conc. 1.0 mM
BtIspD = molecular target: T1, BtIspD (Burkholderia thailandensis, UniProt Q2SWT6); format: binding
T1 construct: 6xHis (AVA0421 vector, 3C-cleavable) (N, cleaved yes); made in house; host or cells: E. coli BL21(DE3)R3 Rosetta Oxford
T1 sequence (Q2SWT6 1-236): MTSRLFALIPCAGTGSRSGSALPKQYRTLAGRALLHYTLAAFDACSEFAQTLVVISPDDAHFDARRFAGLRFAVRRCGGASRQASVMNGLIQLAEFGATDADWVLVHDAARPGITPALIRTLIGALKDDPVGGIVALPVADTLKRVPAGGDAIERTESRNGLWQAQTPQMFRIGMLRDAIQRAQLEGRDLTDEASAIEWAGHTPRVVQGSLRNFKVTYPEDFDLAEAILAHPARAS

BtIspE = format: binding, Burkholderia thailandensis

Structure (SMILES) | melting point | zone of inhibition at 100 µM [1] | zone of inhibition at 500 µM [1] | zone of inhibition at 1000 µM [1] | zone of inhibition at 100 µM [2] | zone of inhibition at 500 µM [2] | zone of inhibition at 1000 µM [2] | concentration at which inhibitory activity against B. thailandensis is shown [2] | STD-NMR binding to BtIspD (in words) (BtIspD) | change of STD binding to BtIspD upon addition of CDP (BtIspD) | STD-NMR binding to BtIspE (in words) (BtIspE) | change of % STD binding signal to BtIspE after subsequent addition of CDP (BtIspE) | change of % STD binding signal to BtIspE upon addition of ADP (BtIspE) | growth inhibition of P. aeruginosa (in words) [1] | growth inhibition of B. thailandensis (in words) [2] | concentration at which inhibitory activity against kanamycin resistant P. aeruginosa is shown [1]
Cn1ncc2c(NCc3ccco3)ncnc21 [Compound 7] | 141 to 143 °C | 0 mm | 0 mm | 0 mm | 0 mm | 0 mm | 20 mm | – | – | – | – | – | – | – | – | –
Cn1ncc2c(NCCc3ccccc3F)ncnc21 [Compound 21] | 139 to 140 °C | 0 mm | 8 mm | 16 mm | 0 mm | 12 mm | 16 mm | – | – | – | – | – | – | – | – | –
CC(C)(C)n1ncc2c(NCCO)ncnc21 [Compound 4] | 75 to 77 °C | 0 mm | 12 mm | 20 mm | 0 mm | 8 mm | 12 mm | – | – | – | – | – | – | – | – | –
C[C@H](Nc1ncnc2c1cnn2C)c1ccccc1 [Compound 10] | 201 to 203 °C | 0 mm | 8 mm | 14 mm | 0 mm | 11 mm | 19 mm | – | – | – | – | – | – | – | – | –
Cn1ncc2c(NCCc3ccc(F)cc3)ncnc21 [Compound 23] | 106 to 107 °C | 0 mm | 9 mm | 17 mm | 0 mm | 12 mm | 22 mm | – | – | – | – | – | – | – | – | –
Cn1ncc2c(NCc3ccccc3F)ncnc21 [Compound 13] | 184 to 185 °C | 0 mm | 12 mm | 18 mm | 0 mm | 8 mm | 13 mm | – | – | – | – | – | – | – | – | –
CC(C)(C)n1ncc2c(NCc3cccc([N+](=O)[O-])c3)ncnc21 [Compound 15] | 135 to 137 °C | 0 mm | 13 mm | 17 mm | 0 mm | 12 mm | 16 mm | – | – | – | – | – | – | – | – | –
CC(C)(C)n1ncc2c(NCc3ccccc3)ncnc21 [Compound 11] | 158 to 160 °C | 0 mm | 0 mm | 0 mm | 0 mm | 12 mm | 18 mm | – | – | – | – | – | – | – | – | –
Cn1ncc2c(NCCc3c[nH]c4ccccc34)ncnc21 | 183 to 185 °C | – | – | – | – | – | – | – | – | – | – | – | – | – | – | –
Cn1ncc2c(NCCc3ccc(Cl)cc3)ncnc21 [Compound 24] | – | 0 mm | 0 mm | 10 mm | 0 mm | 10 mm | 13 mm | – | – | – | – | – | – | – | – | –
CC(C)(C)n1ncc2c(NCCc3c(Cl)cccc3Cl)ncnc21 [Compound 28] | 154 to 156 °C | 0 mm | 0 mm | 0 mm | 0 mm | 11 mm | 18 mm | – | – | – | – | – | – | – | – | –
NC[C@H]1O[C@H](O[C@H]2[C@H](O)[C@@H](O[C@H]3O[C@H](CO)[C@@H](O)[C@H](N)[C@H]3O)[C@H](N)C[C@@H]2N)[C@H](O)[C@@H](O)[C@@H]1O [Kanamycin, reference compound] | – | 0 mm | 0 mm | 0 mm | 6 mm | 22 mm | 30 mm | 48.5 µg/mL | – | – | – | – | – | – | – | –
Cn1ncc2c(NCCc3c(F)cccc3Cl)ncnc21 [Compound 26] | 195 to 196 °C | 0 mm | 11 mm | 19 mm | 0 mm | 13 mm | 21 mm | – | strongest binders | large decrease | – | – | – | – | – | –
Cn1ncc2c(NCCc3ccc(O)cc3)ncnc21 [Compound 25] | 182 to 184 °C | 0 mm | 0 mm | 0 mm | 0 mm | 0 mm | 0 mm | – | strongest binders | – | weaker binder | loses all binding signal entirely | no change | Activity was not detected; also recorded: did not show zone of inhibition activity | Activity was not detected; also recorded: did not show zone of inhibition activity | –
CC(C)(C)n1ncc2c(NCc3ccco3)ncnc21 [Compound 8] | 101 to 103 °C | 0 mm | 6 mm | 12 mm | 0 mm | 12 mm | 14 mm | – | – | – | – | – | – | – | – | –
Cn1ncc2c(NCc3ccccc3)ncnc21 [Compound 9] | – | 0 mm | 0 mm | 0 mm | 0 mm | 0 mm | 12 mm | – | – | – | – | – | – | – | – | –
Cn1ncc2c(NCCc3ccc(Cl)cc3Cl)ncnc21 [Compound 29] | 145 to 147 °C | 0 mm | 12 mm | 18 mm | 6 mm | 10 mm | 18 mm | – | strongest binders | – | high % STD values; also recorded: highest % STD value; also recorded: significant interactions with the active site of BtIspE | – | – | measurable potency | most potent compound tested | 0.5 mM
Cn1ncc2c(NCc3cccc(F)c3)ncnc21 [Compound 14] | 176 to 177 °C | 0 mm | 10 mm | 15 mm | 0 mm | 6 mm | 11 mm | – | – | – | high % STD values | – | – | – | – | –
CC(C)Nc1ncnc2c1cnn2C [Compound 6] | 101 to 103 °C | 0 mm | 0 mm | 10 mm | 0 mm | 13 mm | 21 mm | – | – | – | – | – | – | – | – | –
CCOC(=O)CNc1ncnc2c1cnn2C [Compound 5] | 141 to 142 °C | 0 mm | 0 mm | 13 mm | 0 mm | 8 mm | 12 mm | – | – | – | – | – | – | – | – | –
CC(C)(C)n1ncc2c(NCc3ccc(Cl)c(Cl)c3)ncnc21 [Compound 19] | 120 to 123 °C | 0 mm | 12 mm | 16 mm | 0 mm | 16 mm | 20 mm | – | – | – | – | – | – | – | – | –
Cn1ncc2c(NCCc3cccc(F)c3)ncnc21 [Compound 22] | 109 to 110 °C | 0 mm | 0 mm | 8 mm | 0 mm | 11 mm | 14 mm | – | – | – | – | – | – | – | – | –
CC(C)(C)n1ncc2c(NCCc3c(F)cccc3Cl)ncnc21 [Compound 27] | 140 to 142 °C | 0 mm | 0 mm | 0 mm | 0 mm | 12 mm | 16 mm | – | strongest binders | large decrease | – | – | – | – | – | –
Cn1ncc2c(NCc3ccc(F)cc3)ncnc21 [Compound 16] | – | 0 mm | 12 mm | 18 mm | 0 mm | 9 mm | 18 mm | – | – | – | – | – | – | – | – | –
Cn1ncc2c(NCCc3ccccc3)ncnc21 [Compound 20] | 101 to 103 °C | 0 mm | 0 mm | 0 mm | 0 mm | 9 mm | 20 mm | – | – | – | – | – | – | – | – | –

Source: patent US10155766B2, “Pyrazolopyrimidine antibacterial agents” (priority 2016, dated 2018)
